Test results from US20110152218A1, “CRYSTALLINE PHOSPHOLIPID, METHOD FOR ITS PRODUCTION AND USE IN TREATING DAMAGED TISSUE” (priority 2008, published 2011).

How the values were obtained:
[1] = tested on: HPMC; assay: HPMC ATP bioluminescence assay; type: cell-based, human; conditions: 72 hours
Description: The viability of HPMC after stimulation with FCS, phospholipid prepared according to Example 1 (Vibrated and Non-vibrated), lysophosphatidic acid (LPA), DPPC, DPPC/LPA, POPC, Curosurf, egg-PG (EPG) and the three Intralipid™ products was determined using an ATP assay. This assay measures the light emitted during the ATP dependant oxidation of luciferin in order to accurately quantify the ATP concentration.
As described in Example 3, primary HPMC are isolated from omental tissue biopsies donated by consenting patients undergoing elective abdominal surgery. Cells are grown to approximately 60% confluence in 96 well plates (Falcon) and used at passage 2. All cells are growth arrested in serum free M199 for 24 hours prior to use.
An ATP Bioluminescence Assay Kit CLS II (Roche Diagnostics, Cat No 1 699 695, 11857300) was used. It contains ATP Standard, Luciferase and distilled water. A 10 mM EDTA solution was prepared by dissolving 1.8612 g EDTA (Fischer Scientific, Code D/0650/60, Batch 0447430, Mr-372.24) in 500 ml H2O (or 3.7224 g in 1 litre). A BAC-extract solution was prepared by dissolving 1 g Benzalkonium Chloride (Sigma-Aldrich, Cat:-23, 442-7, Lot S22104-334) in 1 litre of 10 mM EDTA. […]
To mix, rotate the bottle carefully. • 2) Make up an ATP standard solution having a base concentration of 1.65 μM ATP. […] Use distilled water as the control. • 4) Set the Fluostar Optima plate reader to measure luminescence. Set the Fluostar Optima plate reader pump to inject 20 μl of luciferase into each of the required wells. • 5) Place the plate into the plate reader and measure the relative light units (RLU). • 6) Prepare a standard curve such as that shown in FIG. 16 by plotting a graph of RLU against ATP concentration.
96 well plates from the HPMC proliferation study were defrosted. […] The ATP concentrations were calculated from the RLU of the samples using the standard curve. As an alternative to using an ATP standard curve, data can be normalised to the un-stimulated control and expressed as “ATP (% of control)”.

[2] = tested on: human peritoneal mesothelial cell (HPMC); assay: HPMC proliferation, Alamar Blue and MTT assay; type: cell-based; conditions: 48 hours and 72 hours; over the tested concentrations in supplemented M199
Description: The effect of a phospholipid prepared as described in Example 1 (and/or its constituent compounds) to induce human peritoneal mesothelial cell proliferation was assessed using an Alamar Blue™ assay and an MTT assay.
The Alamar Blue™ assay is designed to measure the proliferation of various cell types by measuring the ability of the cells to metabolise and reduce a REDOX indicator (Alamar Blue™). Reduction of the REDOX indicator results in a change in its fluorescent activity. Therefore the fluorescent activity measured is proportional to cell proliferation.
The MTT Assay measures the proliferations of various cells and is based on the mitochondrial conversion of tetrazolium salt 3-[4,5-dimethyl-thiazol-2-yl]-2,5-diphenyltetrazium bromide (MTT), into an insoluble formazan salt. The resultant colour change is directly related to the number of viable cells.
As described in Morgan L W et al (“Glucose degradation products (GDP) retard re-mesothelialisation independently of D-glucose concentration.” Kidney Int 64:1854-1866, 2003), primary HPMC are isolated from omental tissue biopsies donated by consenting patients undergoing elective abdominal surgery. Cells were grown to approximately 60% confluence in 96 well plates (Falcon) and used at passage 2. All cells were growth arrested in serum free M199 for 24 hours prior to use.
The supplemented M199 medium was prepared as follows. Earle's salt medium M199 was supplemented with 100μ/ml penicillin, 100 μg/ml streptomycin, 2 mM glutamine, 5 μg/ml insulin, 5 μg/ml transferrin and 0.4 μg/ml hydrocortisone and 2 mmol/L N-2-hydroxyethylpiperazine-N′-2ethanesulfonic acid.
The phospholipid prepared as described in Example 1 was prepared as follows. […]
The growth medium was aspirated from each well and then the well was washed once using 200 μl per well of supplemented M199. […] The fluorescent activity of Alamar Blue™ at 540 nm (wavelength) was measured using a Dynex Revalation 96-multiwell plate reader. […]

Compound | HPMC proliferation by ATP assay (ATP % of control) compared to the negative control ([1]; single well, over the tested concentrations) | HPMC proliferation compared to the negative control [2] | HPMC proliferation by ATP assay compared to the negative control ([1]; 0.0875 mg/ml, FIG. 11G)
Lysophosphatidic acid [LPA] | no increase of HPMC proliferation | no significant stimulation of HPMC proliferation | –
CCCCCCCC/C=C\CCCCCCCC(=O)O[C@H](COC(=O)CCCCCCCCCCCCCCC)COP(=O)([O-])OCC[N+](C)(C)C [POPC, Palmitoyl oleoyl phosphatidyl choline] | – | no significant stimulation of HPMC proliferation | increased HPMC proliferation
